Data reported in PubChem BioAssay AID330 (DTP/NCI, 2004).
Several values for one entry are separate records, joined by “and”; a condition that tells them apart may be missing. Equal values may be shown once. Inconclusive results and toxic doses are left out. Peptide text beside a SMILES is read from it.

Test system: P388 leukemia ip, CD2F1 mice, survival T/C
Assay: NCI In Vivo Anticancer Drug Screen. Data for tumor model P388 Leukemia (intraperitoneal) in CD2F1 (CDF1) mice
Conditions: endpoint: median survival time, higher = longer survival
Method in brief: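 Mice carrying the transplanted tumor received test compound or vehicle. Survival was recorded in each group, and the value is the treated-group measurement divided by that of the vehicle-treated control group.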

[1] = dose: 50.0 mg/kg/injection, schedule: Q01DX009 (ip), vehicle: saline
[2] = dose: 100.0 mg/kg/injection, schedule: Q01DX009 (ip), vehicle: saline
[3] = dose: 12.5 mg/kg/injection, schedule: Q01DX005 (ip), vehicle: saline with Tween-80
[4] = dose: 25.0 mg/kg/injection, schedule: Q01DX005 (ip), vehicle: saline with Tween-80
[5] = dose: 50.0 mg/kg/injection, schedule: Q01DX005 (ip), vehicle: saline with Tween-80
[6] = dose: 100.0 mg/kg/injection, schedule: Q01DX005 (ip), vehicle: saline with Tween-80
[7] = dose: 100.0 mg/kg/injection, schedule: Q01DX001 (ip), vehicle: saline with Tween-80
[8] = dose: 200.0 mg/kg/injection, schedule: Q01DX001 (ip), vehicle: saline with Tween-80
[9] = dose: 50.0 mg/kg/injection, schedule: Q01DX005 (ip), vehicle: Klucel (hydroxypropylcellulose) (HPC)
[10] = dose: 100.0 mg/kg/injection, schedule: Q01DX005 (ip), vehicle: Klucel (hydroxypropylcellulose) (HPC)
[11] = dose: 100.0 mg/kg/injection, schedule: Q01DX009 (ip), vehicle: saline with Tween-80
[12] = dose: 200.0 mg/kg/injection, schedule: Q01DX009 (ip), vehicle: saline with Tween-80
[13] = dose: 50.0 mg/kg/injection, schedule: Q01DX009 (ip), vehicle: saline with Tween-80
[14] = dose: 100.0 mg/kg/injection, schedule: Q01DX001 (ip), vehicle: Klucel (hydroxypropylcellulose) (HPC)
[15] = dose: 200.0 mg/kg/injection, schedule: Q01DX001 (ip), vehicle: Klucel (hydroxypropylcellulose) (HPC)

Cc1ccnc(Sc2ccc([N+](=O)[O-])cc2[N+](=O)[O-])n1
T/C [1]: 102 % of control
T/C [2]: 104 % of control
T/C (dose: 200.0 mg/kg/injection, schedule: Q01DX009 (ip), vehicle: saline): 100 % of control

NC(=S)N/N=C/c1ccnnc1
T/C (dose: 3.12 mg/kg/injection, schedule: Q04DX003 (ip), vehicle: saline): 104 % of control and 97 % of control
T/C (dose: 6.25 mg/kg/injection, schedule: Q04DX003 (ip), vehicle: saline): 100 % of control and 97 % of control
T/C (dose: 12.5 mg/kg/injection, schedule: Q04DX003 (ip), vehicle: saline): 104 % of control and 108 % of control
T/C (dose: 25.0 mg/kg/injection, schedule: Q04DX003 (ip), vehicle: saline): 98 % of control and 100 % of control
T/C (dose: 25.0 mg/kg/injection, schedule: Q04DX003 (ip), vehicle: suspension in saline): 99 % of control
T/C (dose: 100.0 mg/kg/injection, schedule: Q04DX003 (ip), vehicle: saline): 103 % of control
T/C (dose: 200.0 mg/kg/injection, schedule: Q04DX003 (ip), vehicle: saline): 97 % of control
T/C (dose: 400.0 mg/kg/injection, schedule: Q04DX003 (ip), vehicle: saline): 97 % of control

NNC(=O)CCSC(=O)Nc1ccccc1
T/C [3]: 110 % of control
T/C [4]: 106 % of control
T/C [5]: 107 % of control and 112 % of control
T/C [6]: 114 % of control

COc1ccc2c(C)cc(=O)sc2c1
T/C (dose: 50.0 mg/kg/injection, schedule: Q01DX009 (ip), vehicle: saline + Tween-80 + alcohol): 101 % of control
T/C (dose: 100.0 mg/kg/injection, schedule: Q01DX009 (ip), vehicle: saline + Tween-80 + alcohol): 104 % of control
T/C (dose: 200.0 mg/kg/injection, schedule: Q01DX009 (ip), vehicle: saline + Tween-80 + alcohol): 100 % of control

Nc1ncnc2c1ncn2C1OC(CO)C(N)C1O (configuration not stated)
T/C (dose: 100.0 mg/kg/injection, schedule: Q04DX002 (ip), vehicle: saline with Tween-80): 102 % of control
T/C (dose: 200.0 mg/kg/injection, schedule: Q04DX002 (ip), vehicle: saline with Tween-80): 102 % of control
T/C (dose: 400.0 mg/kg/injection, schedule: Q04DX002 (ip), vehicle: saline with Tween-80): 105 % of control

O=C(CCN1CC1)Nc1cccc(NC(=O)CCN2CC2)c1
T/C (dose: 1.8 mg/kg/injection, schedule: Q01DX009 (ip), vehicle: Klucel (hydroxypropylcellulose) (HPC)): 176 % of control
T/C (dose: 2.5 mg/kg/injection, schedule: Q01DX009 (ip), vehicle: Klucel (hydroxypropylcellulose) (HPC)): 158 % of control and 169 % of control and 185 % of control
T/C (dose: 3.0 mg/kg/injection, schedule: Q01DX009 (ip), vehicle: Klucel (hydroxypropylcellulose) (HPC)): 174 % of control
T/C (dose: 5.0 mg/kg/injection, schedule: Q01DX009 (ip), vehicle: Klucel (hydroxypropylcellulose) (HPC)): 167 % of control and 191 % of control and 209 % of control
T/C (dose: 6.0 mg/kg/injection, schedule: Q01DX009 (ip), vehicle: Klucel (hydroxypropylcellulose) (HPC)): 186 % of control
T/C (dose: 15.0 mg/kg/injection, schedule: Q01DX009 (ip), vehicle: Klucel (hydroxypropylcellulose) (HPC)): 88 % of control
T/C (dose: 20.0 mg/kg/injection, schedule: Q01DX009 (ip), vehicle: Klucel (hydroxypropylcellulose) (HPC)): 116 % of control

Cn1c2c([N+](=O)[O-])cccc2c(=O)c2c(O)cc3c(c21)C=CC(C)(C)O3
T/C [7]: 108 % of control
T/C [8]: 110 % of control

CC(C)CCCCCc1ccc(OCCOc2ccc(C(=O)Nc3ccc(S(=O)(=O)F)cc3N)cc2)cc1
T/C (dose: 50.0 mg/kg/injection, schedule: Q04DX003 (ip), vehicle: saline sonified): 100 % of control
T/C (dose: 100.0 mg/kg/injection, schedule: Q04DX003 (ip), vehicle: saline sonified): 100 % of control
T/C (dose: 200.0 mg/kg/injection, schedule: Q04DX003 (ip), vehicle: saline sonified): 90 % of control

O=C(c1ccccc1)c1cnc2nc(-c3ccccc3)c(-c3ccccc3)nn12
T/C [3]: 89 % of control
T/C [4]: 90 % of control
T/C [5]: 93 % of control and 94 % of control
T/C [6]: 101 % of control
T/C (dose: 200.0 mg/kg/injection, schedule: Q01DX005 (ip), vehicle: saline with Tween-80): 102 % of control

C=CC(=O)N(C)c1nc(N(C)C)nc(N(C)C)n1
T/C [9]: 102 % of control
T/C [10]: 108 % of control

COc1cc2cc3c4cc(OC)c(OC)cc4cc[n+]3c(CCC(=O)O)c2cc1OC
T/C [11]: 96 % of control
T/C [12]: 96 % of control
T/C (dose: 400.0 mg/kg/injection, schedule: Q01DX009 (ip), vehicle: saline with Tween-80): 94 % of control

O=C(c1ccc2c(c1)C(=O)NC2=O)c1ccc2c(c1)C(=O)NC2=O
T/C (dose: 25.0 mg/kg/injection, schedule: Q01DX009 (ip), vehicle: saline with Tween-80): 96 % of control
T/C [13]: 89 % of control
T/C [11]: 86 % of control

CN(C)CCC(=O)c1ccc(Cl)cc1Cl
T/C [1]: 110 % of control
T/C [2]: 100 % of control

Cc1cccc(C(=O)N2C(=O)Cc3ccccc32)c1
T/C [14]: 99 % of control
T/C [15]: 94 % of control

CN(C)c1nc2c(N)ncnc2n1C1OC(CO)C(O)C1O (configuration not stated)
T/C [3]: 100 % of control and 106 % of control
T/C [4]: 103 % of control and 106 % of control
T/C [5]: 112 % of control and 113 % of control
T/C [6]: 123 % of control

CC1=CC(O)C(O)C2(C)C1CC1OC(=O)C(OC(=O)CC(C)C)C3C(C)C(O)C4(O)OCC13C42 (configuration not stated) (tested in a mixture with another compound)
T/C (dose: 125.0 micrograms/kg/injection, schedule: Q01DX009 (ip), vehicle: other): 104 % of control
T/C (dose: 250.0 micrograms/kg/injection, schedule: Q01DX009 (ip), vehicle: other): 102 % of control
T/C (dose: 500.0 micrograms/kg/injection, schedule: Q01DX009 (ip), vehicle: other): 103 % of control
T/C (dose: 1000.0 micrograms/kg/injection, schedule: Q01DX009 (ip), vehicle: other): 108 % of control

CC(NC(=O)C(C)NC(=O)C(N)CCC(=O)O)C(=O)O (stereo not drawn) (H-Glu-Ala-Ala-OH; configuration not given here)
T/C (dose: 50.0 mg/kg/injection, schedule: Q01DX005 (ip), vehicle: saline): 104 % of control
T/C (dose: 100.0 mg/kg/injection, schedule: Q01DX005 (ip), vehicle: saline): 104 % of control
T/C (dose: 200.0 mg/kg/injection, schedule: Q01DX005 (ip), vehicle: saline): 103 % of control

CC(C)(C)NC(=S)N/N=C/c1cc(Cl)cc(Cl)c1O
T/C [13]: 97 % of control
T/C [12]: 98 % of control

N#CC1CCCC(Cc2ccccc2)(c2ccccc2)C1=O (configuration not stated)
T/C [14]: 101 % of control
T/C [15]: 102 % of control
T/C (dose: 400.0 mg/kg/injection, schedule: Q01DX001 (ip), vehicle: Klucel (hydroxypropylcellulose) (HPC)): 100 % of control

Cc1ccc(N2N=NC3C4CCC(C)(C4(C)C)C32O)cc1 (configuration not stated)
T/C (dose: 50.0 mg/kg/injection, schedule: Q04DX002 (ip), vehicle: other): 92 % of control
T/C (dose: 100.0 mg/kg/injection, schedule: Q04DX002 (ip), vehicle: other): 98 % of control
T/C (dose: 200.0 mg/kg/injection, schedule: Q04DX002 (ip), vehicle: other): 93 % of control

O=C(Sc1ccc(F)cc1)N1CCN(C(=O)Sc2ccc(F)cc2)CC1
T/C [9]: 99 % of control
T/C [10]: 96 % of control
T/C (dose: 200.0 mg/kg/injection, schedule: Q01DX005 (ip), vehicle: Klucel (hydroxypropylcellulose) (HPC)): 100 % of control

Fc1ccc(Oc2ccc(F)cc2)cc1
T/C (dose: 50.0 mg/kg/injection, schedule: Q04DX003 (ip), vehicle: saline with Tween-80): 106 % of control
T/C (dose: 100.0 mg/kg/injection, schedule: Q04DX003 (ip), vehicle: saline with Tween-80): 107 % of control
T/C (dose: 200.0 mg/kg/injection, schedule: Q04DX003 (ip), vehicle: saline with Tween-80): 111 % of control
T/C (dose: 400.0 mg/kg/injection, schedule: Q04DX003 (ip), vehicle: saline with Tween-80): 109 % of control

O=C1c2cccc(NCCCNCCO)c2C(=O)c2cccc(NCCCNCCO)c21
T/C (dose: 12.5 mg/kg/injection, schedule: Q04DX002 (ip), vehicle: distilled water + Tween-80): 110 % of control
T/C (dose: 25.0 mg/kg/injection, schedule: Q04DX002 (ip), vehicle: distilled water + Tween-80): 104 % of control
T/C (dose: 50.0 mg/kg/injection, schedule: Q04DX002 (ip), vehicle: distilled water + Tween-80): 111 % of control

CN(C)CCC(/C=C/c1ccco1)=N\NC(=S)Nc1ccc(Cl)cc1
T/C [7]: 97 % of control
T/C [8]: 101 % of control
T/C (dose: 400.0 mg/kg/injection, schedule: Q01DX001 (ip), vehicle: saline with Tween-80): 103 % of control
